Like-named read-outs stand apart in the source and are kept apart here.
Columns and labels:
mAb12.8 [1] = format: binding; conditions: for binding to mAb12.8: ELISA of Example 2 part A / Example 3, FIG. 4, GM3 immobilized from methanol; for A450 (absorbance at 450 nm): 10 μg/mL mAb12.8
Description: Microtiter plates are prepared with serial dilutions of 3′SL-HSA (prepared as described in Example 1) in Tris-Ca^++ buffer (0.05M Tris HCl, pH 7.5, 0.15 M NaCl, 2 mM CaCl2), starting with 500 ng/well. The plates are incubated at 37° C. for 1 hour to immobilize the carbohydrate on the plastic well surface.
100 μl of 2% BSA in Tans-Cat^++ buffer is added to each well, and the plates are incubated at room temperature for 1 hour, and washed 3 times with Tris-Ca^++ buffer. 100 μl of 10 μg/mL mAb12.8 in 1% BSA Tris-Ca^++ buffer is then added to each well, and the plates are incubated at room temperature for 2 hours. Again, the plates are washed 3 times with Tris-Ca^++ buffer.
100 μl of 1 μg/mL peroxidase-labeled goat anti-mouse IgM (KPL, Inc., Gaithersburg, Md.) in 1% BSA Tris-Ca^++ buffer is added to each well, and the plates are incubated at room temperature for 1 hour, and washed 3 times with Tris-Ca^++ buffer. 100 μl of TMB (tetramethylbenzidine) substrate solution (KPL, Inc., Gaithersburg, Md.) is then added to each well, and the reaction is allowed to proceed for 2 minutes. The reaction is stopped, and detection enhanced, by the addition of 100 μl of 1M formic acid/well. The absorbance at 450 nm is then determined in a Titertek Multiskan MCC/340 plate reader (Flow Laboratories. Inc., McLean, Va.).
To illustrate the specificity of the interaction between 3′SL-HSA and mAb 12.8, and to further characterize the epitope of the antibody, the assay described in Example 2, part A, is performed using the control carbohydrates shown below:
The assays of each of the above HSA conjugates are performed as described for 3′SL-HSA. For GM3, the assay is as described above except that dilutions of GM3 are prepared in methanol, and immobilization on the plastic well surface is achieved by allowing the methanol to completely evaporate under an exhaust hood. After immobilization, 100 μl of 1% BSA in Tris-Ca^++ buffer is added to the wells containing GM3.

[2] = tested on: KG1A cells bound to mAb12.8; test: Parallel plate flow assay, inhibition of CD34+ (KG1A) cell binding to immobilized mAb12.8; format: cell-based; conditions: 200 ng carbohydrate per dish, 250 ng mAb12.8, wall shear stress 0.48 dynes/cm^2 for 2 minutes; FIG. 5
Description: This Example illustrates the use of a representative carbohydrate according to this invention to release KG1A cells (ATCC No. CCL246.1, Rockville, Md.) bound to mAb12.8.
Monoclonal antibody 12.8 is immobilized on 35 mm tissue culture dishes by adsorption, as shown below:
Each substrate is coated on the dish and incubated at 37° C. for 1 hour prior to adding the next substrate or running the flow assay. The flow assay utilizes a parallel plate flow chamber mounted on an inverted-stage microscope to visualize the adhesive interactions between cells and substrates. Each dish is attached to the flow chamber and mounted on the microscope stage.
To prevent binding of the cells to mAb12.8 by way of Fc receptors on the cell surface, human IgG ([…]) is added to the KG1A cells 10 minutes prior to the flow assay. In addition, 200 ng of 3′SL-HSA is added to dish 2, and 200 ng of 6′SL-HSA is added to dish 3, and flow is initiated such that the cells flow over the surface of the dish at a wall shear stress of 0.48 dynes/cm^2 for 2 minutes, prior to collecting images at 7 different locations on the dish. The images are then quantified, using video microscopy coupled to digital image processing, to determine the number of adherent cells in each image, and the number of cells in the 7 images are averaged.

mAb12.8 [3] = test: ELISA, binding of defucosylated SLe^x epitope to mAb12.8 with and without α1,3,4 fucosidase treatment; design: species or system mouse; conditions: 250 ng per well, FIG. 3; for binding to mAb12.8 after fucosidase treatment: 200 units per well α1,3,4 fucosidase, 37° C. overnight
Description: In a related experiment, the binding of a partially defucosylated SLe^X epitope (coupled to HSA) is evaluated using a similar ELISA. […] 100 μl of 2% BSA in Tris-Ca^++ buffer is added to each well to block further non-specific binding, and the plates are incubated at room temperature for 1 hour, followed by 2 washes with Tris-Ca^++ buffer. 200 units per well of α1,3,4 fucosidase (New England Biolabs, Beverly, Mass.) in citrate buffer (pH 4.0) is then added to half of the wells. The plates are covered and incubated at 37° C. overnight.
The plates are then washed three times with Tris-Ca^++ buffer and mAb12.8 (100 μl of 10 μg/mL mAb12.8 in Tris-Ca^++ buffer) is then added to each well except for 1 negative control for each condition. The plates are incubated at room temperature for 2 hours.
The plates are then washed 3 times with Tris-Ca^++ buffer, and 100 μl of 1 μg/mL peroxidase-labeled goat anti-mouse IgM (KPL, Inc., Gaithersburg, Md.) in 1% BSA Tris-Ca^++ buffer is added to each well. The plates are incubated at room temperature for 1 hour. The wells are then washed 5 times with Tris-Ca^++ buffer, and 100 μl of TMB substrate solution (KPL, Gaithersburg, Md.) is added to each well, and the reaction is allowed to proceed for 2 minutes. The reaction is stopped, and detection enhanced, by the addition of 100 μl of IM formic acid/well. The absorbance at 450 nm is then determined in a Titertek Multiskan MCC/340 plate reader (Flow Laboratories, Inc., McLean, Va.).

mAb12.8 [4] = test: ELISA, effect of varying linker arm and carrier group on carbohydrate binding to mAb12.8; design: species or system mouse; conditions: 100 μl of carbohydrate at 0.5 μg/ml immobilized; 10 μg/ml mAb12.8; FIG. 2
Description: The effect of altering the chemical linker arm and carrier group on the 3′SL binding to mAb12.8 is evaluated using the following carbohydrates, prepared as described in example 1: 3′SL-APD-dendrimer. 3′SL-APD-BSA. 3′SL-APEA-BSA, 3′SL-APD-HSA and 6′SL-APD-HSA.
100 μl of each of the above carbohydrates is added to duplicate wells in a 96-well microtiter plate at 0.5 μg/ml. The plates are incubated overnight at 4° C. to immobilize the carbohydrates on the plastic well surface. The wells are then washed three times and filled with Tris-Cat^++ buffer (0.05 M Tris-HCl, pH 7.5, 0.15 M NaCl, 2 mM CaCl2) containing 1% BSA. The plates are then incubated for 1 hour at room temperature to block nonspecific binding.
The plates are washed three times with Tris-Ca^++ buffer and mAb 12.8 (100 μl of 10 μg/ml in Tris-Ca^++ buffer) is added to all wells except one negative control for each condition. The plates are incubated for an additional two hours at room temperature. […]
Wells are washed five times with Tris-Ca^++ buffer and 100 μl of tetramethylbenzidine solution (TMB substrate solution. KPL, Inc., Gaithersburg, Md.) is added. […] The microtiter plate is read in a Titertek Multiskan MCC/340 plate reader (Flow Laboratories, Inc., McLean, Va.) set at a wavelength of 450 nm.

| Substance | binding to mAb12.8 (mAb12.8 [1]) | binding to mAb12.8 after fucosidase treatment (mAb12.8 [3]) | further results |
| --- | --- | --- | --- |
| Neu5Acα2-3Galβ1-3GlcNAcβ1-3Galβ1-4(Glc)-APD-HSA [LSTa-HSA, reference compound] | does not bind |  |  |
| Neu5Acα2-3Galβ1-4(Glc)-APD-HSA [3′SL-HSA] | binds to mAb12.8 | no detectable effect on binding | A450 (absorbance at 450 nm) (mAb12.8 [1]; about 100 ng per well immobilized carbohydrate): greater than 1; A450 (absorbance at 450 nm) (mAb12.8 [1]; about 200 ng per well immobilized carbohydrate): ~3; A450 (absorbance at 450 nm) (mAb12.8 [1]; amounts less than about 70 ng/well immobilized carbohydrate): approximately 0.5; inhibition of binding of KG1A cells to mAb12.8 [2]: inhibits the binding of KG1A cells to mAb12.8; binding to mAb12.8 (mAb12.8 [3]; absence of fucosidase treatment): bind to mAb12.8 |
| Neu5Acα2-3Galβ1-4GlcNAcβ1-3Galβ1-4(Glc)-HSA |  | bind to mAb12.8 |  |
| Neu5Acα2-3Galβ1-4Glcβ1-1Ceramide [GM3, reference compound] | does not bind |  |  |
| Neu5Acα2-6Galβ1-4(Glc)-APD-HSA [6′SL-HSA, reference compound] | does not bind |  | binding to mAb12.8 (mAb12.8 [4]): does not bind |

From patent US6362010B1, “Methods and compositions for release of CD3430 cells from affinity matrices” (priority 1995, dated 2002)
